According to publication PMC7689089, “Regorafenib combined with PD1 blockade increases CD8 T-cell infiltration by inducing CXCL10 expression in hepatocellular carcinoma” (Journal for Immunotherapy of Cancer, 2020):

Experiments:
[1] = system: CXCL10; experiment: Plasma CXCL10 in patients before and after 2 weeks of regorafenib; assay type: in vivo, human; conditions: patients with advanced HCC (n=1) and AML (n=7); after 2 weeks of treatment
From the text: Formalin-fixed paraffin-embedded HCC tissue and blood samples were obtained with informed consent from a published cohort of deidentified patients who underwent liver resection at the department of Surgery at Fundeni Clinical Institute, Bucharest, Romania.[31] Furthermore, we collected blood samples with informed consent from patients treated by regorafenib as standard of care (HCC) or in a phase I clinical trial of regorafenib monotherapy in patients with acute myeloid leukemia (AML). Peripheral blood was collected before regorafenib therapy and after 2 weeks of treatment and processed in a Clinical Laboratory Improvement Amendments-certified facility of the Steele Laboratories at MGH. […]
(§1) treated by regorafenib as standard of care (HCC) (using the DFCI Protocol No.: 13-416 “Collection of Specimens and Clinical Data for Patients with Known or Suspected Solid Tumors”, PI, Dr. Juric, MGH) or in a phase I clinical trial of regorafenib monotherapy in acute myeloid leukemia (AML) patients (ClinicalTrials.gov Identifier: NCT03042689, PI, Hobbs, MGH). Both protocols have been IRB approved, and written consent was obtained from all patients.
Protein analyses. […]
Flow cytometry analysis. […] After preparation, cells were suspended in 2ml of PBS with 2% BSA, then counted using a cell counting plate (Kova slide) (if the final concentration of cell exceeded 10^7 cells/ml, a dilution factor was applied). […]

[2] = system: RIL-175 cells; experiment: CXCL10 secretion by RIL-175 cells in vitro (ELISA); assay type: cell-based, mouse; conditions: 36 hours
From the text: To determine if CXCL10 was produced by murine HCC cells in response to regorafenib treatment, we next cultured RIL-175 cells with various concentration of regorafenib in vitro and measured the CXCL10 levels by ELISA. […]
as §1
Protein analyses. Western blotting was performed using antibodies against Stat1 (D1K9Y), phosphorylated (p)-Stat1 (Tyr701) (D4A7), Stat3 (79D7), p-Stat3 (Ser727) (Cell Signaling Technology, Danvers, MA), and IFN-γ (EPR1108) (Abcam, Cambridge, MA). Multiplexed protein array analysis was performed for protein extracts from whole tumors, using V-PLEX Proinflammatory Panel 1 Mouse Kit, V-PLEX Cytokine Panel 1 Mouse Kit and V-PLEX […] (Meso-Scale Discovery, Rockville, MD). For cell supernatant collection, 1x10^6 of RIL-175 cells were cultured in DMEM medium with 2% FBS and regorafenib was given in a various dose.
Supernatant was collected after 36hr of incubation and multiplexed protein array analysis was done using the same kit above.
Flow cytometry analysis. Tumor tissues were extracted from the mice, weighted and minced with a scalpel. Hank’s buffered salt solution (HBSS) with 1.5mg/ml of collagenase and hyaluronidase was added to the minced tissues and incubated for 30 min at 37°C. After incubation, digested tissues were passed through the 70μm cell strainer and washed with PBS with 2% BSA. After preparation, cells were suspended in 2ml of PBS with 2% BSA, then counted using a cell counting plate (Kova slide) (if the final concentration of cell exceeded 10^7 cells/ml, a dilution factor was applied). One hundred microliters of this suspension were used per subsequent flow cytometry staining. […]

CNC(=O)c1cc(Oc2ccc(NC(=O)Nc3ccc(Cl)c(C(F)(F)F)c3)c(F)c2)ccn1 [regorafenib]
Concentration of plasma CXCL10 [1]: increased concentration | Regorafenib concentration at peak CXCL10 secretion [2]: 1 µM | Level of CXCL10 secreted by RIL-175 cells ([2]; various concentrations, n=6): significantly increased
